Read-outs that look alike come from different tables or passages of the source. Marks after values point to notes of the source that are not given here.
Tests used:
human NPP1 [1] = target: T1, human NPP1 (Homo sapiens, UniProt P22413); assay: NPP1 inhibition vs. new artificial substrate p-Nph-5′-AMP (p-nitrophenolate at 400 nm); type: biochemical
T1 construct: Human recombinant soluble NPP1 (Val191—Leu591) expressed in murine myeloma NS0 cells; His-tag (N); purchased R&D Systems GmbH (Wiesbaden, Germany); host or cells: murine myeloma NS0 cells
T1 sequence (P22413 191-591): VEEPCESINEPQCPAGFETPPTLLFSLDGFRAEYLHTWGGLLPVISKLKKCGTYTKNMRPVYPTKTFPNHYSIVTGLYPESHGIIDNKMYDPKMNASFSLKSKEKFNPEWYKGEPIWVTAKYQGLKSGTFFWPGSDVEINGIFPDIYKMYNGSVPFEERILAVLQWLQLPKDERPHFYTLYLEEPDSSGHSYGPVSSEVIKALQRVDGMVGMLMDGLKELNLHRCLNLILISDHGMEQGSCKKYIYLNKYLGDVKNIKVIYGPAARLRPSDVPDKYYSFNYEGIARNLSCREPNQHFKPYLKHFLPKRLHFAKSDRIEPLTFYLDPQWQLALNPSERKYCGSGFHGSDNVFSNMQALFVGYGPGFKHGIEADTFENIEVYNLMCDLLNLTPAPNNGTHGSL

human NPP1 [2] = target: T1, human NPP1; assay: Inhibition constants and mechanism of inhibition (Hanes-Woolf plots) compared across all investigated substrates; type: biochemical; settings: for Inhibition type: Hanes-Woolf plots, same type vs. all three substrates (ATP, p-Nph-5′-TMP, p-Nph-5′-AMP)
human NPP1 [3] = target: T1, human NPP1; assay: NPP1 inhibition vs. natural substrate ATP (CE, AMP quantified by UV at 260 nm); type: biochemical
human NPP1 [4] = target: T1, human NPP1; assay: NPP1 inhibition vs. artificial substrate p-Nph-5′-TMP (p-nitrophenolate at 400 nm); type: biochemical
human NPP1 [5] = target: T1, human NPP1; set-up: method as in Lee and Müller, 2014; settings: ref Lee and Müller, 2014; cited from earlier work
human NPP1 [6] = target: T1, human NPP1; settings: read-out: Ki, ATP; substrate ATP; mean ± SEM; ref Lee et al., 2015; cited from earlier work
NPP1 = settings: cited from earlier work; for Ki: vs. ATP as a substrate, ref Iqbal et al., 2008
human NPP1 [7] = target: T1, human NPP1; assay: Enzyme kinetic parameters of NPP1 substrates; type: biochemical; settings: for kcat: substrate of human NPP1, pH 9.0, 37°C
Method: (§1) Enzyme kinetic parameters were measured for p-Nph-5′-TMP and p-Nph-5′-AMP, both being artificial substrates of human NPP1. Solutions with different concentrations of both substrates (ranging from 1.0 to 500 μM) were prepared in 10 mM CHES buffer (in mM: 1 MgCl2, 2 CaCl2, 10 CHES, pH 9.0) and added in a final volume of 100 μl to 96-well-plates. The enzyme reactions were initiated by the addition of 20 ng of human NPP1 (for p-Nph-5′-TMP), or 75 ng of human NPP1 (for p-Nph-5′-AMP). The mixture was incubated at 37°C for 15 min (p-Nph-5′-TMP), or 30 min (for p-Nph-5′-AMP), respectively, and subsequently terminated by the addition of 20 μl of 1.0 N aqueous NaOH solution. The amounts of p-nitrophenolate liberated were measured at 400 nm. Each analysis was repeated twice in three separate experiments.

human NPP1 [8] = target: T1, human NPP1; set-up: method as in Namasivayam et al., 2017; settings: substrate of NPP1; ref Namasivayam et al., 2017; cited from earlier work
human NPP1 [9] = target: T1, human NPP1; set-up: method as in Chang et al., 2014; settings: more potent vs. p-Nph-5′-TMP than vs. ATP; ref Chang et al., 2014; cited from earlier work
[10] = substrate: Cc1cn([C@H]2C[C@H](O)[C@@H](COP(=O)(O)Oc3ccc([N+](=O)[O-])cc3)O2)c(=O)[nH]c1=O; assay: Enzyme kinetic parameters of NPP1 substrates; type: biochemical; settings: other: substrate of human NPP1, pH 9.0, 37°C
Method: as §1

[11] = substrate: Nc1ncnc2c1ncn2[C@@H]1O[C@H](COP(=O)(O)Oc2ccc([N+](=O)[O-])cc2)[C@@H](O)[C@H]1O; assay: Enzyme kinetic parameters of NPP1 substrates; type: biochemical; settings: other: substrate of human NPP1, pH 9.0, 37°C
Method: as §1

[12] = substrate p-Nph-5′-AMP, mean ± SD of three independent experiments, read-out: Ki ± SD, p-Nph-5′-AMP
[13] = substrate p-Nph-5′-TMP, mean ± SD of three independent experiments, read-out: Ki ± SD, p-Nph-5′-TMP

## Nc1ncnc2c1ncn2[C@@H](C=O)O[C@@H](C=O)COP(=O)(O)OP(=O)(O)OP(=O)(O)O [dialATP, adenosine 5′-triphosphate-2′,3′-dialdehyde]
Human NPP1 [1]; αKi-value (un-competitive inhibitor), substrate p-Nph-5′-AMP, mean ± SD of three independent experiments
  αKi ± SD, p-Nph-5′-AMP: 5.08 ± 0.33^b μM
Human NPP1 [2]
  Ki: ~5 µM
  Inhibition type: Un-competitive
Human NPP1 [3]; αKi-value (un-competitive inhibitor), substrate ATP, mean ± SD of three independent experiments
  αKi ± SD, ATP: 6.82 ± 1.01^b μM
Human NPP1 [4]; αKi-value (un-competitive inhibitor), substrate p-Nph-5′-TMP, mean ± SD of three independent experiments
  αKi ± SD, p-Nph-5′-TMP: 4.09 ± 0.41^b μM
Human NPP1 [5]
  manner of NPP1 inhibition: uncompetitive

## [TiW11CoO40]^8−
Human NPP1 [6]
  Ki: 0.00146 ± 1e-05 µM
Human NPP1 [1]; [12]
  Ki: 0.00174 ± 0.00099 µM
Human NPP1 [2]
  Inhibition type: Non-competitive
Human NPP1 [4]; [13]
  Ki: 0.00199 ± 0.00033 µM

## Nc1ncnc2c1ncn2[C@@H](C=O)O[C@@H](C=O)COP(=O)(O)OP(=O)(O)O [dialADP, Adenosine 5′-diphosphate-2′,3′-dialdehyde]
Human NPP1 [1]; [12]
  Ki: 5.09 ± 1.72 µM
Human NPP1 [2]
  Ki: ~5 µM
  Inhibition type: Non-competitive
Human NPP1 [3]
  Ki: 5.62 ± 1.23 µM
Human NPP1 [4]; [13]
  Ki: 5.03 ± 0.15 µM
Human NPP1 [5]
  manner of NPP1 inhibition: non-competitive

## COc1cc2ncnc(N3CCC(CCNS(N)(=O)=O)CC3)c2cc1OC [SAR 03004, N-[2-[1-(6,7-Dimethoxyquinazolin-4-yl)piperidin-4-yl]ethyl]sulfuric diamide]
NPP1; ATP as a substrate, ref Patel et al., 2009
  IC50: […]
Human NPP1 [2]
  Inhibition type: Competitive

## Cc1cn([C@H]2C[C@H](O)[C@@H](COP(=O)(O)Oc3ccc([N+](=O)[O-])cc3)O2)c(=O)[nH]c1=O [p-Nph-5′-TMP, p-Nitrophenyl 5′-thymidine monophosphate]
Human NPP1 [7]; compared to p-Nph-5′-AMP
  kcat-value fold higher than that for p-Nph-5′-AMP: ~10 fold
Human NPP1 [7]
  kcat: 22.3 s⁻¹

## CSc1nc(N)c2ncn([C@@H]3O[C@H](COP(=O)(O)OP(=O)(O)O)[C@@H](O)[C@H]3O)c2n1 [2-MeSADP, 2-methylthio-adenosine 5′-diphosphate]
Human NPP1 [1]; [12]
  Ki: 35.4 ± 6.4 µM
Human NPP1 [2]
  Inhibition type: Competitive
Human NPP1 [3]
  Ki: 32.8 ± 7 µM
Human NPP1 [4]; [13]
  Ki: 2.18 ± 0.29 µM

## Nc1ncnc2c1ncn2[C@@H]1O[C@H](COP(=O)(O)OP(=O)(O)OP(=O)(O)O)[C@@H](O)[C@H]1O [ATP, adenosine 5′-triphosphate]
Human NPP1 [8]
  kcat: 5.51 s⁻¹

## Nc1ncnc2c1ncn2[C@@H]1O[C@H](COP(=O)(O)CP(=O)(O)OP(=O)(O)O)[C@@H](O)[C@H]1O [α,β-metATP, adenosine 5′-(α,β-methylene)triphosphate]
Human NPP1 [2]
  Inhibition type: Competitive

## Nc1ncnc2c1ncn2[C@@H]1O[C@H](COP(=O)(O)Oc2ccc([N+](=O)[O-])cc2)[C@@H](O)[C@H]1O [p-Nph-5′-AMP, p-nitrophenyl 5′-adenosine monophosphate]
Human NPP1 [7]; compared to natural substrate ATP
  Km-value fold higher than that for ATP: > 20 fold
Human NPP1 [7]
  kcat: 2.51 s⁻¹

## CSc1nc(N)c2ncn([C@@H]3O[C@H](COP(=O)(O)OP(=O)(O)OP(=O)(O)O)[C@@H](O)[C@H]3O)c2n1 [2-MeSATP, 2-methylthio-adenosine 5′-triphosphate]
Human NPP1 [1]; [12]
  Ki: 39.9 ± 6.9 µM
Human NPP1 [2]
  Inhibition type: Competitive
Human NPP1 [3]
  Ki: 25.3 ± 5.9 µM
Human NPP1 [4]; [13]
  Ki: 4.47 ± 0.66 µM

## Cc1ccc(C(=O)Nc2ccc(S(=O)(=O)O)c3cc(S(=O)(=O)O)cc(S(=O)(=O)O)c23)cc1NC(=O)c1cccc(NC(=O)Nc2cccc(C(=O)Nc3cc(C(=O)Nc4ccc(S(=O)(=O)O)c5cc(S(=O)(=O)O)cc(S(=O)(=O)O)c45)ccc3C)c2)c1 [suramin]
NPP1
  Ki: 0.26 µM

## Nc1c(S(=O)(=O)O)cc(Nc2ccc(Nc3nc(Cl)nc(Nc4cccc(S(=O)(=O)O)c4)n3)c(S(=O)(=O)O)c2)c2c1C(=O)c1ccccc1C2=O [reactive blue 2]
Human NPP1 [1]
  Ki: 0.176 ± 0.025 µM
NPP1
  Ki: 0.52 µM
Human NPP1 [2]
  Inhibition type: Non-competitive
Human NPP1 [3]
  Ki: 0.141 ± 0.031 µM
Human NPP1 [4]
  Ki: 0.198 ± 0.034 µM

## COc1ccc(NC(=O)CSc2nc3c(N)ncnc3[nH]2)cc1OC [PZB08513136A, 2-(6-Amino-9H-purin-8-ylthio)-N-(3,4-dimethoxyphenyl)acetamide]
Human NPP1 [1]; [12]
  Ki: 14.9 ± 0.8 µM
Human NPP1 [2]
  Inhibition type: Competitive
Human NPP1 [9]
  fold difference in potency, p-Nph-5′-TMP vs. ATP as substrate: more than 100 fold

## Nc1ncnc2c1ncn2[C@@H]1O[C@H](COP(=O)(O)CP(=O)(O)O)[C@@H](O)[C@H]1O [α,β-metADP, adenosine 5′-(α,β-methylene)diphosphate]
Human NPP1 [1]
  Ki: 25.8 ± 4.1 µM
Human NPP1 [2]
  Inhibition type: Competitive
Human NPP1 [3]
  Ki: 16.5 ± 3.1 µM
Human NPP1 [4]
  Ki: 1.28 ± 0.16 µM

B1: human NPP1 (Homo sapiens) (protein)
chain: T1 sequence (P22413 191-591)
notes: Human recombinant soluble NPP1 (Val191—Leu591) expressed in murine myeloma NS0 cells; His-tag (N); purchased R&D Systems GmbH (Wiesbaden, Germany); host or cells: murine myeloma NS0 cells
[10]
  Km: 222 µM
[11]
  Km: 188 µM
  kcat: 2.51 s⁻¹
  kcat/Km: 13400 M⁻¹ s⁻¹

Source: PMC5309242, “Substrate-Dependence of Competitive Nucleotide Pyrophosphatase/Phosphodiesterase1 (NPP1) Inhibitors” (Frontiers in Pharmacology, 2017)
